In brackets after ≈: the same amount, converted by molar mass.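 Five concentrations, 48 hours, 96-well plates. Here, GI50 denotes the concentration required for 50% inhibition of growth. TGI marks complete inhibition of growth.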
Columns and labels:
Assay in all cases: NCI-60 cell line screen, 48 h
NCI-H522 lung = test system: NCI-H522 lung
UO-31 renal = test system: UO-31 renal
HL-60(TB) leukemia = test system: HL-60(TB) leukemia
SK-MEL-28 melanoma = test system: SK-MEL-28 melanoma
NCI/ADR-RES ovarian = test system: NCI/ADR-RES ovarian
CCRF-CEM leukemia = test system: CCRF-CEM leukemia
MOLT-4 leukemia = test system: MOLT-4 leukemia
M14 melanoma = test system: M14 melanoma
HCT-15 colon = test system: HCT-15 colon
SW-620 colon = test system: SW-620 colon
COLO 205 colon = test system: COLO 205 colon
EKVX NSCLC = test system: EKVX NSCLC
HS 578T breast = test system: HS 578T breast
LOX IMVI melanoma = test system: LOX IMVI melanoma
PC-3 prostate = test system: PC-3 prostate
ACHN renal = test system: ACHN renal
MCF7 breast = test system: MCF7 breast
OVCAR-3 ovarian = test system: OVCAR-3 ovarian
A549 NSCLC = test system: A549 NSCLC
SF-539 CNS = test system: SF-539 CNS
SNB-75 CNS = test system: SNB-75 CNS
786-0 renal = test system: 786-0 renal
MDA-MB-231 breast = test system: MDA-MB-231 breast
KM12 colon = test system: KM12 colon
SK-MEL-5 melanoma = test system: SK-MEL-5 melanoma
OVCAR-5 ovarian = test system: OVCAR-5 ovarian
UACC-62 melanoma = test system: UACC-62 melanoma
NCI-H23 lung = test system: NCI-H23 lung
MDA-MB-435 = test system: MDA-MB-435
SN12C renal = test system: SN12C renal
RXF 393 renal = test system: RXF 393 renal
NCI-H460 lung = test system: NCI-H460 lung
SK-OV-3 ovarian = test system: SK-OV-3 ovarian
OVCAR-4 ovarian = test system: OVCAR-4 ovarian
SF-295 CNS = test system: SF-295 CNS
OVCAR-8 ovarian = test system: OVCAR-8 ovarian
RPMI-8226 leukemia = test system: RPMI-8226 leukemia
T-47D breast = test system: T-47D breast
NCI-H226 lung = test system: NCI-H226 lung
SNB-19 CNS = test system: SNB-19 CNS
HT29 colon = test system: HT29 colon
HOP-92 NSCLC = test system: HOP-92 NSCLC
HCT-116 colon = test system: HCT-116 colon
SF-268 CNS = test system: SF-268 CNS
CAKI-1 renal = test system: CAKI-1 renal
SR leukemia = test system: SR leukemia
DU-145 prostate = test system: DU-145 prostate
HOP-62 NSCLC = test system: HOP-62 NSCLC
SK-MEL-2 melanoma = test system: SK-MEL-2 melanoma
IGROV1 ovarian = test system: IGROV1 ovarian
A498 renal = test system: A498 renal
U251 CNS = test system: U251 CNS
TK-10 renal = test system: TK-10 renal
MALME-3M melanoma = test system: MALME-3M melanoma
K-562 leukemia = test system: K-562 leukemia
BT-549 breast = test system: BT-549 breast
HCC-2998 colon = test system: HCC-2998 colon
UACC-257 melanoma = test system: UACC-257 melanoma

O=NC1C(Cl)C2CC1C1C(Br)C(Br)CC21 (centres undefined)
TGI (NCI-H522 lung): > 100 µM
TGI (UO-31 renal): > 100 µM
TGI (HL-60(TB) leukemia): > 100 µM
TGI (SK-MEL-28 melanoma): > 100 µM
TGI (NCI/ADR-RES ovarian): > 100 µM
TGI (CCRF-CEM leukemia): > 100 µM
TGI (MOLT-4 leukemia): > 100 µM
TGI (M14 melanoma): > 100 µM
TGI (HCT-15 colon): > 100 µM
TGI (SW-620 colon): > 100 µM
TGI (COLO 205 colon): > 100 µM
TGI (EKVX NSCLC): > 100 µM
TGI (HS 578T breast): > 100 µM
TGI (LOX IMVI melanoma): > 100 µM
TGI (PC-3 prostate): > 100 µM
TGI (ACHN renal): > 100 µM
TGI (MCF7 breast): > 100 µM
TGI (OVCAR-3 ovarian): > 100 µM
TGI (A549 NSCLC): > 100 µM
TGI (SF-539 CNS): > 100 µM
TGI (SNB-75 CNS): > 100 µM
TGI (786-0 renal): > 100 µM
TGI (MDA-MB-231 breast): > 100 µM
TGI (KM12 colon): > 100 µM
TGI (SK-MEL-5 melanoma): > 100 µM
TGI (OVCAR-5 ovarian): > 100 µM
TGI (UACC-62 melanoma): > 100 µM
TGI (NCI-H23 lung): > 100 µM
TGI (MDA-MB-435): > 100 µM
TGI (SN12C renal): > 100 µM
TGI (RXF 393 renal): > 100 µM
TGI (NCI-H460 lung): > 100 µM
TGI (SK-OV-3 ovarian): > 100 µM
TGI (OVCAR-4 ovarian): > 100 µM
TGI (SF-295 CNS): > 100 µM
TGI (OVCAR-8 ovarian): > 100 µM
TGI (RPMI-8226 leukemia): 68.6 µM
TGI (T-47D breast): > 100 µM
TGI (NCI-H226 lung): > 100 µM
TGI (SNB-19 CNS): > 100 µM
TGI (HT29 colon): > 100 µM
TGI (HOP-92 NSCLC): > 100 µM
TGI (HCT-116 colon): > 100 µM
TGI (SF-268 CNS): > 100 µM
TGI (CAKI-1 renal): > 100 µM
TGI (SR leukemia): > 100 µM
TGI (DU-145 prostate): > 100 µM
TGI (HOP-62 NSCLC): > 100 µM
TGI (SK-MEL-2 melanoma): > 100 µM
TGI (IGROV1 ovarian): > 100 µM
TGI (A498 renal): > 100 µM
TGI (U251 CNS): > 100 µM
TGI (TK-10 renal): > 100 µM
TGI (MALME-3M melanoma): > 100 µM
TGI (K-562 leukemia): > 100 µM

CC(=O)OC1C=CC(OC(C)=O)C2C1[C@H]1C3C=CC=CC3[C@@H]2S1=O (some centres undefined)
GI50 (MDA-MB-435): 40.2 µg/mL
GI50 (BT-549 breast): 59.8 µg/mL (≈ 172 µM)
GI50 (A498 renal): 53.7 µg/mL
GI50 (HCC-2998 colon): 94.2 µg/mL

O=C1c2c(c3c4ccccc4[nH]c3c3ccc4ccccc4c23)C(=O)N1CCN1CCCCC1
GI50 (NCI-H522 lung): 1.5 µM
TGI (NCI-H522 lung): 5.36 µM
GI50 (HL-60(TB) leukemia): 1.07 µM
TGI (HL-60(TB) leukemia): 3.31 µM
GI50 (SK-MEL-28 melanoma): 1.65 µM
TGI (SK-MEL-28 melanoma): 3.16 µM
GI50 (NCI/ADR-RES ovarian): 0.797 µM
TGI (NCI/ADR-RES ovarian): 3.31 µM
GI50 (CCRF-CEM leukemia): 0.272 µM
TGI (CCRF-CEM leukemia): 11.3 µM
GI50 (MOLT-4 leukemia): 0.354 µM
TGI (MOLT-4 leukemia): 5.35 µM
GI50 (HCT-15 colon): 0.963 µM
TGI (HCT-15 colon): 3.38 µM
GI50 (SW-620 colon): 0.663 µM
TGI (SW-620 colon): 4.75 µM
GI50 (COLO 205 colon): 1.38 µM
TGI (COLO 205 colon): 8.28 µM
GI50 (EKVX NSCLC): 13.4 µM
TGI (EKVX NSCLC): > 100 µM
GI50 (HS 578T breast): 2.04 µM
TGI (HS 578T breast): 5.71 µM
GI50 (LOX IMVI melanoma): 0.894 µM
TGI (LOX IMVI melanoma): 2.33 µM
GI50 (PC-3 prostate): 1.68 µM
TGI (PC-3 prostate): 24.7 µM
GI50 (ACHN renal): 0.335 µM
TGI (ACHN renal): 2.26 µM
GI50 (MCF7 breast): 0.0388 µM
TGI (MCF7 breast): 2.34 µM
GI50 (OVCAR-3 ovarian): 1.99 µM
TGI (OVCAR-3 ovarian): 5.04 µM
GI50 (A549 NSCLC): 3.1 µM
TGI (A549 NSCLC): > 100 µM
GI50 (SF-539 CNS): 1.41 µM
TGI (SF-539 CNS): 3.21 µM
GI50 (SNB-75 CNS): 2.2 µM
TGI (SNB-75 CNS): 22.6 µM
GI50 (MDA-MB-231 breast): 1.95 µM
TGI (MDA-MB-231 breast): 5.08 µM
GI50 (KM12 colon): 3.05 µM
TGI (KM12 colon): 25.5 µM
GI50 (SK-MEL-5 melanoma): 1.51 µM
TGI (SK-MEL-5 melanoma): 3.1 µM
GI50 (UACC-257 melanoma): 1.87 µM
TGI (UACC-257 melanoma): 4.23 µM
GI50 (OVCAR-5 ovarian): 1.52 µM
TGI (OVCAR-5 ovarian): 3.49 µM
GI50 (UACC-62 melanoma): 1.21 µM
TGI (UACC-62 melanoma): 2.59 µM
GI50 (NCI-H23 lung): 0.741 µM
TGI (NCI-H23 lung): 9.79 µM
GI50 (MDA-MB-435): 1.72 µM
TGI (MDA-MB-435): 3.26 µM
GI50 (SN12C renal): 0.447 µM
TGI (SN12C renal): 1.73 µM
GI50 (RXF 393 renal): 1.47 µM
TGI (RXF 393 renal): 3.01 µM
GI50 (NCI-H460 lung): 0.25 µM
TGI (NCI-H460 lung): 1.45 µM
GI50 (SK-OV-3 ovarian): 0.801 µM
TGI (SK-OV-3 ovarian): > 100 µM
GI50 (OVCAR-4 ovarian): 2.03 µM
TGI (OVCAR-4 ovarian): 5.74 µM
GI50 (OVCAR-8 ovarian): 1.27 µM
TGI (OVCAR-8 ovarian): 4.48 µM
GI50 (RPMI-8226 leukemia): 1.78 µM
TGI (RPMI-8226 leukemia): 4.7 µM
GI50 (T-47D breast): 1.61 µM
TGI (T-47D breast): 7.87 µM
GI50 (NCI-H226 lung): 1.23 µM
TGI (NCI-H226 lung): 3.39 µM
GI50 (SNB-19 CNS): 0.94 µM
TGI (SNB-19 CNS): 46.4 µM
GI50 (HT29 colon): 1.72 µM
TGI (HT29 colon): 10.6 µM
GI50 (HOP-92 NSCLC): 2.67 µM
TGI (HOP-92 NSCLC): 38.8 µM
GI50 (SF-268 CNS): 1.15 µM
TGI (SF-268 CNS): > 100 µM
GI50 (DU-145 prostate): 1.05 µM
TGI (DU-145 prostate): 14.5 µM
GI50 (HOP-62 NSCLC): 1.06 µM
TGI (HOP-62 NSCLC): 3.43 µM
GI50 (SK-MEL-2 melanoma): 2.25 µM
TGI (SK-MEL-2 melanoma): 5.36 µM
GI50 (IGROV1 ovarian): 1.25 µM
TGI (IGROV1 ovarian): 4.29 µM
GI50 (A498 renal): 1.18 µM
TGI (A498 renal): 9.85 µM
GI50 (U251 CNS): 1.05 µM
TGI (U251 CNS): 7.51 µM
GI50 (HCC-2998 colon): 1.95 µM
TGI (HCC-2998 colon): 15.3 µM
GI50 (TK-10 renal): 3.38 µM
TGI (TK-10 renal): > 100 µM
GI50 (MALME-3M melanoma): 1.33 µM
TGI (MALME-3M melanoma): 2.92 µM
GI50 (K-562 leukemia): 1.33 µM
TGI (K-562 leukemia): 6.34 µM
